Like-named read-outs stand apart in the source and are kept apart here.
Tests used:
[1] = test system: HCV replicon RNA, genotype 1a (strain H77); experiment: HCV replicon assay qRT-PCR, genotype 1a (Huh-1a7 replicon cell line); assay type: cell-based; settings: Hepatitis C virus, read-out: 1a EC50
Source text: (§1) HCV replicon cell lines (kindly provided by R. Bartenschlager) isolated from colonies as described by Lohman et al. (Lohman et al. (1999) Science 285: 110-113, expressly incorporated by reference in its entirety) and used for all experiments. One of the HCV replicon cell lines (strain Con1, genotype 1b) has the nucleic acid sequence set forth in EMBL Accession No.: AJ242651, the coding sequence of which is from nucleotides 1801 to 8406. Another replicon cell line (strain H77, genotype 1a) was constructed as described by Yi et. al. (Yi et. al. (2004) Journal of Virology 78(15):7904-15). […]
(§2) EC50 values of single agent compounds were determined by HCV RNA detection using quantitative RT-PCR, according to the manufacturer's instructions, with a TAQMAN® One-Step RT-PCR Master Mix Reagents Kit (Cat#AB 4309169, Applied Biosystems) on an ABI Model 7500 thermocycler. EC50 values of combinations are similarly determined by HCV RNA detection using quantitative RT-PCR. The TAQMAN primers to use for detecting and quantifying HCV RNA obtained from Integrated DNA Technologies. HCV RNA is normalized to GAPDH RNA levels in drug-treated cells, which is detected and quantified using the Human GAPDH Endogenous Control Mix (Applied Biosystems, AB 4310884E). […] Chemical agent cytotoxicity is evaluated using an MTS assay according to the manufacturer's directions (Promega). […]

[2] = test system: HCV replicon RNA, genotype 1b (strain Con1); experiment: HCV replicon assay qRT-PCR, genotype 1b (SGR 11-7 replicon cell line); assay type: cell-based; settings: Hepatitis C virus, read-out: 1b EC50
Source text: as §1, §2

With `C=C=C[C@@]1(O)C(O)[C@@H](CO)O[C@H]1n1ccc(=O)[nH]c1=O` (stereo partly shown) [Example 1] the EC50 ([1]; Genotype-1a replicon, HCV RNA by qRT-PCR normalized to GAPDH RNA) was > 10 µM and the EC50 ([2]; Genotype-1b replicon, HCV RNA by qRT-PCR normalized to GAPDH RNA) was > 10 µM.
In the case of `C=C=C[C@@]1(O)C(O)[C@@H](COP(=O)(N[C@@H](C)C(=O)OC)Oc2cccc3ccccc23)O[C@H]1n1ccc(=O)[nH]c1=O` (stereo partly shown) [Example 2], the EC50 [1] is reported as 1 to 10 µM and the EC50 [2] is reported as 1 to 10 µM.
